What all share (assay): Experiment on weeding effect in post-emergence stage
Assay type in all cases: in vivo
Common to all, as to conditions: dose 15 g a.i./ha, fresh weight control rate level

One experiment deals with Abutilon theophrasti. An excerpt: (§1) Experiment on weeding effect in post-emergence stage:
(§2) Monocotyledonous and dicotyledonous weed seeds (Descurainia sophia, Capsella bursa-pastoris, Abutilon theophrasti, Galium aparine, Stellaria media, Lithospermum arvense, Rorippa indica, Alopecurus aequalis, Alopecurus japonicus, Beckmannia syzigachne, Sclerochloa dura, Conyza Canadensis, Phleum paniculatum, Veronica didyma Tenore, Eleusine indica, Bromus japonicus, Aegilops tauschii, Phalaris arundinacea, Amaranthus retroflexus, Chenopodium album, Commelina communis, Sonchus arvensis, Convolvulus arvensis, Cirsium setosum, Solanum nigrum, Acalypha australis, Digitaria sanguinalis, Echinochloa crusgalli, Setaria viridis, Setaria glauca, Leptochloa chinensis, Monochoria vaginalis, Sagittaria trolia, Scirpus juncoides, Cyperus rotundus, Cyperus iria, Cyperus difformis, Elmbristylis, Portulaca oleracea, Xanthium sibiricum, Pharbitis nil) and major crop seeds (wheat, corn, rice, soybean, cotton, oilseed rape, millet, sorghum, potato, sesame, ricinus) were placed in plastic pots filled with soil, then covered with 0.5-2 cm of soil, allowed to grow in a good greenhouse environment. After 2 weeks of sowing, the test plants were treated in the 2-3 leaf stage. The tested compounds of the present invention were respectively dissolved in acetone, then added with Tween 80 and 1.5 liter/ha of emulsifiable concentrate of methyl oleate as synergist, diluted with a certain amount of water to obtain a solution with a certain concentration, and sprayed with a spray tower onto the plants. After the application, the plants were cultured for 3 weeks in the greenhouse, and then the experimental results of the weeding were counted. The doses of the used compounds were 500, 250, 125, 60, 15 g a.i./ha, and the averages were obtained by repeating for three times.

In a further experiment the test system is Amaranthus retroflexus.
Excerpt: as §1, §2

The subject of the next experiment is Digitaria sanguinalis.
Excerpt: as §1, §2

In the next experiment the test system is Echinochloa crusgalli.
Excerpt: as §1, §2

Another experiment deals with Eleusine indica.
Excerpt: as §1, §2

Another experiment concerns Galium aparine.
Excerpt: as §1, §2

A further experiment deals with Leptochloa chinensis.
Excerpt: as §1, §2

In the next experiment the test system is Setaria viridis.
Excerpt: as §1, §2

The subject of another experiment is Veronica didyma Tenore.
Excerpt: as §1, §2

Consider `CC=NOC(=O)C1(C)CC(c2cc(-n3c(=O)n(C)c(=S)n(C)c3=O)c(F)cc2Cl)=NO1` (mixture of isomers) [Compound 2], for which the “weeding effect in post-emergence stage, Abutilon theophrasti (level)” value (“weeding effect … Abutilon theophrasti (level)” for short) with Abutilon theophrasti is reported as 5 (Level 5: growth control rate is above 85%). Moreover, the “weeding effect in post-emergence stage, Amaranthus retroflexus (level)” value (“weeding effect … Amaranthus retroflexus (level)” below) in the experiment on Amaranthus retroflexus is 5 (Level 5: growth control rate is above 85%). Moreover, the “weeding effect in post-emergence stage, Digitaria sanguinalis (level)” value (“weeding effect … Digitaria sanguinalis (level)” for short) with Digitaria sanguinalis is 5 (Level 5: growth control rate is above 85%). In the experiment on Echinochloa crusgalli, the “weeding effect in post-emergence stage, Echinochloa crusgalli (level)” value (“weeding effect … Echinochloa crusgalli (level)” for short) is 5 (Level 5: growth control rate is above 85%). The “weeding effect in post-emergence stage, Eleusine indica (level)” value (“weeding effect … Eleusine indica (level)” for short) with Eleusine indica is reported as 5 (Level 5: growth control rate is above 85%). In addition, in the experiment with Galium aparine, the “weeding effect in post-emergence stage, Galium aparine (level)” value (shortened to “weeding effect … Galium aparine (level)”) is given as 5 (Level 5: growth control rate is above 85%). Further, in the experiment on Leptochloa chinensis, the “weeding effect in post-emergence stage, Leptochloa chinensis (level)” value (shortened to “weeding effect … Leptochloa chinensis (level)”) is on record as 5 (Level 5: growth control rate is above 85%). For the same compound, in the experiment with Setaria viridis, the “weeding effect in post-emergence stage, Setaria viridis (level)” value (“weeding effect … Setaria viridis (level)” for short) was 5 (Level 5: growth control rate is above 85%). In the experiment with Veronica didyma Tenore, the “weeding effect in post-emergence stage, Veronica didyma Tenore (level)” value (shortened to “weeding effect … Veronica didyma Tenore (level)”) is on record as 5 (Level 5: growth control rate is above 85%).

Regarding `CCC(C)=NOC(=O)C1(C)CC(c2cc(-n3c(=O)n(C)c(=S)n(C)c3=O)c(F)cc2Cl)=NO1` (mixture of isomers) [Compound 79], in the experiment with Abutilon theophrasti, the “weeding effect … Abutilon theophrasti (level)” value is on record as 5 (Level 5: growth control rate is above 85%). Further, the “weeding effect … Amaranthus retroflexus (level)” value in the experiment on Amaranthus retroflexus is listed as 5 (Level 5: growth control rate is above 85%). For the same compound, in the experiment on Digitaria sanguinalis, the “weeding effect … Digitaria sanguinalis (level)” value is given as 5 (Level 5: growth control rate is above 85%). In addition, the “weeding effect … Echinochloa crusgalli (level)” value with Echinochloa crusgalli is 5 (Level 5: growth control rate is above 85%). Moreover, in the experiment with Eleusine indica, the “weeding effect … Eleusine indica (level)” value is reported as 5 (Level 5: growth control rate is above 85%). For the same compound, the “weeding effect … Galium aparine (level)” value with Galium aparine is 5 (Level 5: growth control rate is above 85%). Besides, in the experiment on Leptochloa chinensis, the “weeding effect … Leptochloa chinensis (level)” value was 5 (Level 5: growth control rate is above 85%). Further, the “weeding effect … Setaria viridis (level)” value in the experiment on Setaria viridis was 5 (Level 5: growth control rate is above 85%). The “weeding effect … Veronica didyma Tenore (level)” value in the experiment with Veronica didyma Tenore is 5 (Level 5: growth control rate is above 85%).

Turning to `CC(=NOC(=O)C1(C)CC(c2cc(-n3c(=O)n(C)c(=S)n(C)c3=O)c(F)cc2Cl)=NO1)C(C)C` (mixture of isomers) [Compound 80], in the experiment with Abutilon theophrasti, the “weeding effect … Abutilon theophrasti (level)” value is reported as 5 (Level 5: growth control rate is above 85%). For the same compound, in the experiment on Amaranthus retroflexus, the “weeding effect … Amaranthus retroflexus (level)” value is listed as 5 (Level 5: growth control rate is above 85%). For the same compound, in the experiment on Digitaria sanguinalis, the “weeding effect … Digitaria sanguinalis (level)” value was 5 (Level 5: growth control rate is above 85%). Besides, in the experiment on Echinochloa crusgalli, the “weeding effect … Echinochloa crusgalli (level)” value is on record as 5 (Level 5: growth control rate is above 85%). For the same compound, the “weeding effect … Eleusine indica (level)” value in the experiment with Eleusine indica is recorded as 5 (Level 5: growth control rate is above 85%). Also, the “weeding effect … Galium aparine (level)” value with Galium aparine is 5 (Level 5: growth control rate is above 85%). In addition, the “weeding effect … Leptochloa chinensis (level)” value in the experiment on Leptochloa chinensis was 5 (Level 5: growth control rate is above 85%). Also, the “weeding effect … Setaria viridis (level)” value in the experiment with Setaria viridis is 5 (Level 5: growth control rate is above 85%). Further, the “weeding effect … Veronica didyma Tenore (level)” value with Veronica didyma Tenore is 5 (Level 5: growth control rate is above 85%).

`CC(=NOC(=O)C1(C)CC(c2cc(-n3c(=O)n(C)c(=S)n(C)c3=O)c(F)cc2Cl)=NO1)C(C)(C)C` (mixture of isomers) [Compound 81]: in the experiment with Abutilon theophrasti, the “weeding effect … Abutilon theophrasti (level)” value is given as 5 (Level 5: growth control rate is above 85%). Further, the “weeding effect … Amaranthus retroflexus (level)” value in the experiment on Amaranthus retroflexus was 5 (Level 5: growth control rate is above 85%). Also, the “weeding effect … Digitaria sanguinalis (level)” value in the experiment with Digitaria sanguinalis is reported as 5 (Level 5: growth control rate is above 85%). In the experiment with Echinochloa crusgalli, the “weeding effect … Echinochloa crusgalli (level)” value is given as 5 (Level 5: growth control rate is above 85%). Moreover, the “weeding effect … Eleusine indica (level)” value with Eleusine indica is 5 (Level 5: growth control rate is above 85%). Moreover, the “weeding effect … Galium aparine (level)” value in the experiment with Galium aparine is recorded as 5 (Level 5: growth control rate is above 85%). Also, the “weeding effect … Leptochloa chinensis (level)” value in the experiment on Leptochloa chinensis is 5 (Level 5: growth control rate is above 85%). Moreover, the “weeding effect … Setaria viridis (level)” value in the experiment on Setaria viridis is given as 5 (Level 5: growth control rate is above 85%). In the experiment on Veronica didyma Tenore, the “weeding effect … Veronica didyma Tenore (level)” value is listed as 5 (Level 5: growth control rate is above 85%).

In the case of `CC(=NOC(=O)C1(C)CC(c2cc(-n3c(=O)n(C)c(=S)n(C)c3=O)c(F)cc2Cl)=NO1)C1CC1` (mixture of isomers) [Compound 84], the “weeding effect … Abutilon theophrasti (level)” value with Abutilon theophrasti is listed as 5 (Level 5: growth control rate is above 85%). Also, the “weeding effect … Amaranthus retroflexus (level)” value in the experiment with Amaranthus retroflexus is 5 (Level 5: growth control rate is above 85%). Further, in the experiment on Digitaria sanguinalis, the “weeding effect … Digitaria sanguinalis (level)” value was 5 (Level 5: growth control rate is above 85%). Moreover, the “weeding effect … Echinochloa crusgalli (level)” value in the experiment on Echinochloa crusgalli is on record as 5 (Level 5: growth control rate is above 85%). Besides, in the experiment with Eleusine indica, the “weeding effect … Eleusine indica (level)” value is 5 (Level 5: growth control rate is above 85%). For the same compound, in the experiment with Galium aparine, the “weeding effect … Galium aparine (level)” value is 5 (Level 5: growth control rate is above 85%). For the same compound, in the experiment with Leptochloa chinensis, the “weeding effect … Leptochloa chinensis (level)” value is 5 (Level 5: growth control rate is above 85%). In addition, the “weeding effect … Setaria viridis (level)” value in the experiment on Setaria viridis is listed as 5 (Level 5: growth control rate is above 85%). In addition, the “weeding effect … Veronica didyma Tenore (level)” value in the experiment on Veronica didyma Tenore is recorded as 5 (Level 5: growth control rate is above 85%).

`Cn1c(=S)n(C)c(=O)n(-c2cc(C3=NOC(C)(C(=O)ON=Cc4ccccc4)C3)c(Cl)cc2F)c1=O` (mixture of isomers) [Compound 90]: in the experiment with Abutilon theophrasti, the “weeding effect … Abutilon theophrasti (level)” value is on record as 5 (Level 5: growth control rate is above 85%). Besides, the “weeding effect … Amaranthus retroflexus (level)” value in the experiment with Amaranthus retroflexus is on record as 5 (Level 5: growth control rate is above 85%). The “weeding effect … Digitaria sanguinalis (level)” value in the experiment on Digitaria sanguinalis is given as 5 (Level 5: growth control rate is above 85%). For the same compound, in the experiment on Echinochloa crusgalli, the “weeding effect … Echinochloa crusgalli (level)” value is on record as 5 (Level 5: growth control rate is above 85%). For the same compound, in the experiment with Eleusine indica, the “weeding effect … Eleusine indica (level)” value is given as 5 (Level 5: growth control rate is above 85%). The “weeding effect … Galium aparine (level)” value with Galium aparine is 5 (Level 5: growth control rate is above 85%). For the same compound, the “weeding effect … Leptochloa chinensis (level)” value in the experiment on Leptochloa chinensis is reported as 5 (Level 5: growth control rate is above 85%). Further, the “weeding effect … Setaria viridis (level)” value with Setaria viridis is given as 5 (Level 5: growth control rate is above 85%). Also, the “weeding effect … Veronica didyma Tenore (level)” value in the experiment on Veronica didyma Tenore is on record as 5 (Level 5: growth control rate is above 85%).

The record behind these values is patent publication US20230072860A1, “ISOXAZOLINE OXIME FORMATE COMPOUND, PREPARATION METHOD THEREFOR, HERBICIDAL COMPOSITION AND USE THEREOF” (QINGDAO KINGAGROOT CHEMICAL COMPOUND CO., LTD., priority 2020, published 2023).
